Assay [1] addresses Proto-oncogene tyrosine-protein kinase receptor Ret (Homo sapiens) (UniProt P07949). As to the kind of experiment: Inhibition of Ret at 0.1 uM; values are per cent of control.
Assay [2] deals with Serine/threonine-protein kinase MARK1 (Homo sapiens) (UniProt Q9P0L2). As to the kind of experiment: Inhibition of MARK1 at 0.1 uM; values are per cent of control.
Assay [3] has as its target Receptor tyrosine-protein kinase erbB-4 (Homo sapiens) (UniProt Q15303). As to the kind of experiment: Inhibition of ErbB4 at 1 uM; values are per cent of control.
For assay [4], the target named is Tyrosine-protein kinase Fes/Fps (Homo sapiens) (UniProt P07332). Kind of assay: Inhibition of Fes at 0.1 uM; values are per cent of control.
Assay [5] has as its target T1, Serine/threonine-protein kinase Nek2 (Homo sapiens) (UniProt P51955).
T1 sequence (whole entry): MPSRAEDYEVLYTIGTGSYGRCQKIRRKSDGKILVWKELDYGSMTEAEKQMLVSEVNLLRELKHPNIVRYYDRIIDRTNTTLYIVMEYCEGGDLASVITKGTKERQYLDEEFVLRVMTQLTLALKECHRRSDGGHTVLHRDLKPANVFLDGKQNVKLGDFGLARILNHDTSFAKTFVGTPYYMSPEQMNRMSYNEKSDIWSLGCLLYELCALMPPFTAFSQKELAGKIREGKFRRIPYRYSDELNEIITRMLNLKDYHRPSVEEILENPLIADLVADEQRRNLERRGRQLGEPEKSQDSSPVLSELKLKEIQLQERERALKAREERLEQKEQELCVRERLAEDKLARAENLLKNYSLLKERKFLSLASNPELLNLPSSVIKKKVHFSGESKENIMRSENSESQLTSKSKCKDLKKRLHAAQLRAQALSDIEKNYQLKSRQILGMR
As to the kind of experiment: Inhibition of NEK2 at 1 uM; values are per cent of control.

Assay [6] has as its target T2, Tyrosine-protein kinase ZAP-70 (Homo sapiens) (UniProt P43403).
T2 sequence (whole entry): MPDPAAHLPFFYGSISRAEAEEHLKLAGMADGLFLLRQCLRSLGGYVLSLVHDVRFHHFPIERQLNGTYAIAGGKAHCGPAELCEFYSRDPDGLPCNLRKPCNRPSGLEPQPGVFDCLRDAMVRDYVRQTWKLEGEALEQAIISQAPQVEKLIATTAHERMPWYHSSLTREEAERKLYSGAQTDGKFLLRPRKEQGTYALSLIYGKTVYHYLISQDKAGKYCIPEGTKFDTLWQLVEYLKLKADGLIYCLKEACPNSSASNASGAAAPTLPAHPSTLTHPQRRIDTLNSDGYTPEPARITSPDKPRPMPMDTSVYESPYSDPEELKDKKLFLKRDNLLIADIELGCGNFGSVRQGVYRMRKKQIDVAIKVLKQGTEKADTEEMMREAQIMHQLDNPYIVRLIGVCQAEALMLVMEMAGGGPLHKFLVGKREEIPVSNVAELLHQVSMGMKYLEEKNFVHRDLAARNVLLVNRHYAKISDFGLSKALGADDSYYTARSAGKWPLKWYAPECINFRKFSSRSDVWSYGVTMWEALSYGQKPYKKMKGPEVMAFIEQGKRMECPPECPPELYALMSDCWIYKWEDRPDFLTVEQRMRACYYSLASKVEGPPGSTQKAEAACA
Kind of assay: Inhibition of ZAP70 at 1 uM; values are per cent of control.

For assay [7], the target named is Tyrosine-protein kinase BTK (Homo sapiens) (UniProt Q06187). Kind of assay: Inhibition of BTK at 0.1 uM; values are per cent of control.
For assay [8], the target named is Tyrosine-protein kinase Fgr (Homo sapiens) (UniProt P09769). As to the kind of experiment: Inhibition of Fgr at 1 uM; values are per cent of control.
The target in assay [9] is Mitogen-activated protein kinase 14 (Homo sapiens) (UniProt Q16539). As to the kind of experiment: Inhibition of SAPK2a at 1 uM.
The target of assay [10] is T3, Inhibitor of nuclear factor kappa-B kinase subunit beta (Homo sapiens) (UniProt O14920).
T3 sequence (whole entry): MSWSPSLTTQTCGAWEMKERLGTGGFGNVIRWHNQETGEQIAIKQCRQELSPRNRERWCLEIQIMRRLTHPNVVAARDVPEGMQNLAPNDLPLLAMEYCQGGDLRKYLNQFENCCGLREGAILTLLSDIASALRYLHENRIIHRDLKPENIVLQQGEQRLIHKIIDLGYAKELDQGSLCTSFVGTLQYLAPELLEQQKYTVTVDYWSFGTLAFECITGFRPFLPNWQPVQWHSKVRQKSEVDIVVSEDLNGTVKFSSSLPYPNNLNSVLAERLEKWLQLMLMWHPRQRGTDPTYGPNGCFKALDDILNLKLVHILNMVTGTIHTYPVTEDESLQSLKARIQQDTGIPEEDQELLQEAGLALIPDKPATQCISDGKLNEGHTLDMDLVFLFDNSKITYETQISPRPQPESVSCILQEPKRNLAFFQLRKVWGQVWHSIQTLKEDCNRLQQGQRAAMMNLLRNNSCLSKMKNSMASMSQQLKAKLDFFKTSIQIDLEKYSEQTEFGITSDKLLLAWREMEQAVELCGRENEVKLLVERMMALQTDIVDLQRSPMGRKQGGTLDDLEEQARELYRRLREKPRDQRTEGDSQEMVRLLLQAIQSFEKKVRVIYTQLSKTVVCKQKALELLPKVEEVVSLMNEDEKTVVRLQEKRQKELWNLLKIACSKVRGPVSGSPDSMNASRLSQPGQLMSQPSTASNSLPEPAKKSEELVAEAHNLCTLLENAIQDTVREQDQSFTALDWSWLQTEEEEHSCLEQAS
As to the kind of experiment: Inhibition of IKK-beta at 0.1 uM; values are per cent of control.

In assay [11] the target is Receptor-type tyrosine-protein kinase FLT3 (Homo sapiens) (UniProt P36888). As to the kind of experiment: Inhibition of Flt3 at 1 uM; values are per cent of control.
Assay [12] addresses Tyrosine-protein kinase Lyn (Homo sapiens) (UniProt P07948). Kind of assay: Inhibition of Lyn at 0.1 uM; values are per cent of control.
The target of assay [13] is Proto-oncogene tyrosine-protein kinase receptor Ret (Homo sapiens) (UniProt P07949). As to the kind of experiment: Inhibition of Ret at 1 uM; values are per cent of control.
Sequence of Proto-oncogene tyrosine-protein kinase receptor Ret (Homo sapiens) (P07949 whole entry): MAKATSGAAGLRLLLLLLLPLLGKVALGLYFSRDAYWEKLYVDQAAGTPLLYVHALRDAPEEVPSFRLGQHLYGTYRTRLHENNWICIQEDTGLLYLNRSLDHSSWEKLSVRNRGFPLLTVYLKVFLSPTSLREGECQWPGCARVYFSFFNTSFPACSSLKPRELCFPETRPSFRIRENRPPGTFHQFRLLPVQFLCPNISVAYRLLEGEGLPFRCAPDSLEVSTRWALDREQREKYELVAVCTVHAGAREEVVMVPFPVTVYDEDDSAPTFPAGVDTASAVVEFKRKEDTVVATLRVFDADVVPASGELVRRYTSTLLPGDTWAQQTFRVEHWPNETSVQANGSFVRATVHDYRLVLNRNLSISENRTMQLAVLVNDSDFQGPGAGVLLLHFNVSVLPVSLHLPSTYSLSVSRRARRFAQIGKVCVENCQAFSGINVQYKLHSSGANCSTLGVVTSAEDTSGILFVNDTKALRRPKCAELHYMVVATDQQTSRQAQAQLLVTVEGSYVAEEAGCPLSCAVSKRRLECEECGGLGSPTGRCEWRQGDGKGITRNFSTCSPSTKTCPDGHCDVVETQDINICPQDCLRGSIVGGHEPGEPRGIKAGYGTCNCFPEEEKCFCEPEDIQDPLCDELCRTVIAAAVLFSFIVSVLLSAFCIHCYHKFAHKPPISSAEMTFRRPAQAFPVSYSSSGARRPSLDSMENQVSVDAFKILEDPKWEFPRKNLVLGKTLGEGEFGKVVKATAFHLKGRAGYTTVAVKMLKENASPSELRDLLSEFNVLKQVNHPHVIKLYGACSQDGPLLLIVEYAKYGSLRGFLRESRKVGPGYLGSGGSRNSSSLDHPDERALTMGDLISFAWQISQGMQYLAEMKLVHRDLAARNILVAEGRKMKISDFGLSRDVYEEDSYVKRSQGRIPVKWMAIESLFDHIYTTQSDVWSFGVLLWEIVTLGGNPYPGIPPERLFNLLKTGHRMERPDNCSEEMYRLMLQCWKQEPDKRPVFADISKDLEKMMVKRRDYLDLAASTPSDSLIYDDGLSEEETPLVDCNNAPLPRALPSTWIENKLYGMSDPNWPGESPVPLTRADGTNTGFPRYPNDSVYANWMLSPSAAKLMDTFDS

Sequence of Tyrosine-protein kinase Fes/Fps (Homo sapiens) (P07332 whole entry): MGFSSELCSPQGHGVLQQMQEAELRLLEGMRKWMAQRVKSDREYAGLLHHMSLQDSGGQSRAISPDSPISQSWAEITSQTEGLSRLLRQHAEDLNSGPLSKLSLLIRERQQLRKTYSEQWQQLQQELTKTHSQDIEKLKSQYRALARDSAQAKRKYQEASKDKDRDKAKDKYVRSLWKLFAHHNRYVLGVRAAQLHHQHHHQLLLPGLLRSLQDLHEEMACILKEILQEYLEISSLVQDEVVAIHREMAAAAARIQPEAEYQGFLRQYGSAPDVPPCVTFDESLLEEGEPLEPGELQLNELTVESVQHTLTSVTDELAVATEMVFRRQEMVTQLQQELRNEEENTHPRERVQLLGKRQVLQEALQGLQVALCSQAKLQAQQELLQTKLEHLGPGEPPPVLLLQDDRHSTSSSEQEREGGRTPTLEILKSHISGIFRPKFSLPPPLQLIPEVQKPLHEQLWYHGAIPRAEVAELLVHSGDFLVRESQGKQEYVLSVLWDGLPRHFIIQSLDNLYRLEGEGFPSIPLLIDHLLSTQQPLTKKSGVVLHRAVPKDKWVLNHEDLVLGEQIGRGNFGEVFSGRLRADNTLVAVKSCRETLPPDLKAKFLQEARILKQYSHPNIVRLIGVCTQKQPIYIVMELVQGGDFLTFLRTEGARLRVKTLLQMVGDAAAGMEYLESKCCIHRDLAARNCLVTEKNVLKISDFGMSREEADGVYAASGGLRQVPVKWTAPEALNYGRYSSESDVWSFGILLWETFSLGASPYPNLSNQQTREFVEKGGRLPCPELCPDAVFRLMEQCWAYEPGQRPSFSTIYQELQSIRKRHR
Sequence of Receptor-type tyrosine-protein kinase FLT3 (Homo sapiens) (P36888 whole entry): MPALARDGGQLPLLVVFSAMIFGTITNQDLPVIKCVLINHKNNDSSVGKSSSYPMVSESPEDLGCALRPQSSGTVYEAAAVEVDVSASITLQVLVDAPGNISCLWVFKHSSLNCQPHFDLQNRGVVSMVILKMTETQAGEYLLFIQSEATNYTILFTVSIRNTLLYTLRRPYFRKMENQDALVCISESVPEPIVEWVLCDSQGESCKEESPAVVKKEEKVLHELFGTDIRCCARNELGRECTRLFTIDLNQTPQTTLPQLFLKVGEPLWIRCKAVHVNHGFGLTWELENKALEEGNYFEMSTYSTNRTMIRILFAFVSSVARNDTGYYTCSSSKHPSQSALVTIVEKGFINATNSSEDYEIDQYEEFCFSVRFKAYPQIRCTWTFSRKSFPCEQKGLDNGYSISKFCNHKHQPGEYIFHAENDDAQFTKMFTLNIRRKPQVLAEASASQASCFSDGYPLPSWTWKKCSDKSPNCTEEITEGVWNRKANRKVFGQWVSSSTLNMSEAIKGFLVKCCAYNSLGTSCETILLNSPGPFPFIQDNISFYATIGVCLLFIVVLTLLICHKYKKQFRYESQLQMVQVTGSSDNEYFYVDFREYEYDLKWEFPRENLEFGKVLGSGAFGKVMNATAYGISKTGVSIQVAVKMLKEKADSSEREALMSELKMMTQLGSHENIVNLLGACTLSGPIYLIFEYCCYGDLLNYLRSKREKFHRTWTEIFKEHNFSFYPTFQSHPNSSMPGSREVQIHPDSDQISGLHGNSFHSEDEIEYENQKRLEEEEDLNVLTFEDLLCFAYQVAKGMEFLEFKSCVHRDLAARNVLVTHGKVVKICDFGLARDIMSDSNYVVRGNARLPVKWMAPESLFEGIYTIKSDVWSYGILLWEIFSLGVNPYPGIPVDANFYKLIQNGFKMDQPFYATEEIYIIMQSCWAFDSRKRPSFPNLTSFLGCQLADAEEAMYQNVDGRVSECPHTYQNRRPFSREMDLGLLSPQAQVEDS
Sequence of Mitogen-activated protein kinase 14 (Homo sapiens) (Q16539 whole entry): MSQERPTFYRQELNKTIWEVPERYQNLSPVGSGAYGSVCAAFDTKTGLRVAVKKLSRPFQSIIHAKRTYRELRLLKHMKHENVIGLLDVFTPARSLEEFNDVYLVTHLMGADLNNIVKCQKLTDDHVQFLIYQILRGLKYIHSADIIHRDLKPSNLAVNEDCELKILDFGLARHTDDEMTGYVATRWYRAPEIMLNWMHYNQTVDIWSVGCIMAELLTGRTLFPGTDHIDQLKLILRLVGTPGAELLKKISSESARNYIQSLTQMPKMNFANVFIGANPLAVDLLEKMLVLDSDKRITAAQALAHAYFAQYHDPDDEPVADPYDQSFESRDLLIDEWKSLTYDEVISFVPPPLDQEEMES
Sequence of Tyrosine-protein kinase BTK (Homo sapiens) (Q06187 whole entry): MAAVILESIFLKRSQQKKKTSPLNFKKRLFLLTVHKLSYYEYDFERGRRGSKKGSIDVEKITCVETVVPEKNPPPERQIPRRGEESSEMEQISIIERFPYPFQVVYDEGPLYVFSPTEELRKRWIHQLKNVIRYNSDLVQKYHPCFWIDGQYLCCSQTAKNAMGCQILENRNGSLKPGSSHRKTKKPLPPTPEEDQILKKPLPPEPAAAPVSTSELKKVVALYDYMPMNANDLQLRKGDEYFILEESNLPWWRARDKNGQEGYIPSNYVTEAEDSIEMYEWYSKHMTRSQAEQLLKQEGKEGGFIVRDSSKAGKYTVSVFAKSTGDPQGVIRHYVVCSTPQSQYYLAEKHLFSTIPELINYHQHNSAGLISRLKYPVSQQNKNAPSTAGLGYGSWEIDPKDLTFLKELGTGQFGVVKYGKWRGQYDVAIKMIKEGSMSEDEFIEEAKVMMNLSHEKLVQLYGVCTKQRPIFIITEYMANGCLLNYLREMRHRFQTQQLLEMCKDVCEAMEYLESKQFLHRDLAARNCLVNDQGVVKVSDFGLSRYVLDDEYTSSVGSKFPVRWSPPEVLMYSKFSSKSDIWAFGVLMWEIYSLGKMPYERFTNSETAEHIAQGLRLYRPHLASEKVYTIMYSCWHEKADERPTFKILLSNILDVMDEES
Sequence of Tyrosine-protein kinase Lyn (Homo sapiens) (P07948 2-512 limits assumed): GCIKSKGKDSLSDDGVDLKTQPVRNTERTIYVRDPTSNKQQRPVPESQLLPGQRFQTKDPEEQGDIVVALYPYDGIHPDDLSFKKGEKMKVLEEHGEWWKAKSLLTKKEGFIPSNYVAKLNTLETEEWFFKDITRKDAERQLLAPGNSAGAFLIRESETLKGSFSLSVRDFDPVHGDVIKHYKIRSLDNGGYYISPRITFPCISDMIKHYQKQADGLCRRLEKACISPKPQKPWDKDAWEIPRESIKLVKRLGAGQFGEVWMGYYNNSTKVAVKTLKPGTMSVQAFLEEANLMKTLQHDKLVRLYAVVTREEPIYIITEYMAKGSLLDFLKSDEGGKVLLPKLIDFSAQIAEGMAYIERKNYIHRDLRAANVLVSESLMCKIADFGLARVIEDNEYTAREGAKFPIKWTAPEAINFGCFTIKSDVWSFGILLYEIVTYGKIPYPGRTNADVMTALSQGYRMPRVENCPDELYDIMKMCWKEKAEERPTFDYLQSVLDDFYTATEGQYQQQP
Sequence of Tyrosine-protein kinase Fgr (Homo sapiens) (P09769 2-529 limits assumed): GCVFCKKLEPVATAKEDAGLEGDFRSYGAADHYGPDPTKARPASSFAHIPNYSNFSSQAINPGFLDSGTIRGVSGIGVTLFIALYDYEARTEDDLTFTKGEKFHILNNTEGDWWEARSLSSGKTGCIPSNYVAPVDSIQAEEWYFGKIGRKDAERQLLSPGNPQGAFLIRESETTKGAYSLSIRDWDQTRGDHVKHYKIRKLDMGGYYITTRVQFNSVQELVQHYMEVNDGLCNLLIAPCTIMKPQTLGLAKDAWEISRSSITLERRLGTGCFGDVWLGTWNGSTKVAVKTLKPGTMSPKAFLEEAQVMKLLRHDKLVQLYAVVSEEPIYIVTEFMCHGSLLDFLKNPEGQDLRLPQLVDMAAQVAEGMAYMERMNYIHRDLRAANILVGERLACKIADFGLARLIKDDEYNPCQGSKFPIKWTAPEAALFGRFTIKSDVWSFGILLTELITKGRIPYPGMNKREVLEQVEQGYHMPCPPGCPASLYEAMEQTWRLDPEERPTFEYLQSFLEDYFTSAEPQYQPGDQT

In general, residual activity refers to the signal under treatment as a percentage of the control signal. The inhibition is the relative decrease from the control value, in per cent. Higher therefore signals strong suppression. Take `Cc1ccc2cc(-c3n[nH]c4ccc(NC5CCNC5)cc34)[nH]c2c1` (stereo unspecified): the residual activity in [1] was determined as 8%; in [2], 5%; in [3], 81%; in [4], 3%; in assay [5], 36%; in assay [6], 35%. Moreover, the residual activity in assay [7] was 69%; in assay [8] it was -1%; in assay [10] it was 99%; in assay [11] it was 10%; in assay [12] it was 1%; in assay [13], 3%. Besides, the inhibition in [9] turned out to be 99%.
Consider `Cc1ccc2cc(-c3n[nH]c4ccc(NC5CCN(Cc6ccccc6)CC5)cc34)[nH]c2c1`, for which the residual activity was 0% in [1]; 53% in assay [2]; 10% in assay [3]; 28% in assay [4]; 68% in assay [5]; 75% in assay [6]. Moreover, the residual activity in assay [7] was 38%; in assay [8] it was 0%; in assay [10] it was 103%; in [11] it was 0%; in assay [12], 15%; in assay [13], -2%. Further, in assay [9], the inhibition was 97%.

These data come from ChEMBL document CHEMBL1681705, “Optimisation of ITK inhibitors through successive iterative design cycles” (Bioorg Med Chem Lett, 2011).
